In US20230405078A1, “DETECTION AND TREATMENT OF INTESTINAL FIBROSIS” (THE REGENTS OF THE UNIVERSITY OF CALIFORNIA, priority 2020, published 2023):

What was measured:
CCD-18Co fibroblasts = test: Elafin exposure of serum-starved CCD-18Co fibroblasts (Example 1); type: cell-based, human; details: elafin 0.1-3 μg/ml, 24 hours, no TGF-β1
Protocol: FIG. 6. Elafin promotes fibrogenesis in human colonic fibroblasts. (A) The human colonic CCD-18Co fibroblasts were incubated with 100 μl/ml (10%) of human sera from normal, stricturing CD, and non-stricturing CD patients in serum-free DMEM for 24 hours. (B) The human colonic CCD-18Co fibroblasts were incubated with 100 μl/ml (10%) of human sera from high elafin CD group (>8000 pg/ml) and low elafin CD group (<8000 pg/ml) in serum-free DMEM for 24 hours. (C) Serum-starved CCD-18Co fibroblasts were pretreated with 15 μg/ml of anti-elafin neutralizing antibody or control antibody for 30 minutes, followed by exposure to (100 μl/ml) human sera from normal and stricturing CD patients for 24 hours. Six serum donors per group. (D) Serum-starved CCD-18Co fibroblasts were exposed to elafin (0.1-3 μg/ml) for 24 hours. Pro-COL1A1 protein levels in cell lysates were determined by ELISA. (E) Serum-starved primary human intestinal fibroblasts from CD patients were exposed to elafin for 24 hours. mRNA expression was determined by real-time RT-PCR.
Human CCD-18Co intestinal fibroblasts (ATCC) (2×10^6 cells/plate) were cultured in minimal essential medium Eagle's medium (MEM) containing 10% fetal bovine serum (FBS) and 1% penicillin-streptomycin (P/S) (Invitrogen). […]

CD patient-derived PBMCs = test: Cytokine multiplex assay in serum exosome-preconditioned CD PBMCs; type: cell-based, human; details: CDSE-preconditioned CD PBMCs; 1 μg/ml elafin 6 hours
Protocol: FIG. 30. Cytokine levels in mouse and human sera and CD-PBMCs. (A) Mouse serum cytokine levels were measured by a 23-plex multiplex assay (#M60009RDPD, Bio-Rad). n=5 mice per group. (B) Human serum cytokines were measured by a 27-plex multiplex assay (#M500KCAFOY, Bio-rad). 12 normal, 23 UC, and 43 CD patients. (C) CD patient-derived PBMCs were preconditioned with stricturing CD patient (CDS) or non-stricturing CD patient (CDNS)-derived serum exosomes for two hours, followed by exposure to either 0.1% TFA or 1 μg/ml elafin for 6 hours. The cell supernatants were collected for a 13-plex cytokine multiplex assay (HSTCMAG28SPMX13, Millipore Sigma). (D) A comparison of cytokine levels in mouse sera, human sera, and conditioned media of CDS and CDNS serum exosome-conditioned CD-PBMCs. ns=no significant difference. ND=below detection range. N/A=unavailable. Mo=monocytes. MO=macrophages, DC=dendritic cells.
CD PBMCs (#70052, […] Technologies) were cultured in RPMI1640 media containing 10% exosome-depleted fetal bovine serum (A2720803, ThermoFisher) and 1% penicillin-streptomycin. Some groups were conditioned with 100 μg/ml of human serum exosomes from either CDSE or non-stricturing CD (CDNSE) patients to mimic the CD chemical environment for two hours, followed by addition with either 0.1% TFA or 1 μg/ml elafin. […]

Salmonella-infected mice = test: Salmonella-mediated cecal fibrosis in mice; type: in vivo; details: Salmonella model
Protocol: Eight-week-old male and female 129Sv/J mice (#000691, Jackson Laboratories) were administered 20 mg streptomycin via oral gavage. Twenty-four hours later, the mice were orally infected with Salmonella typhimurium SL1344 strain 1×10^8 colony-forming units by oral gavage to induce cecal fibrosis.
Origene or miR205-5p-OFF lentivrus (mm35328) or miR205-5p-OE lentivirus (mm15214) from Applied Biological Materials on day 14. Some infected mice received oral antibiotics mixture in drinking water ad libitum from day 14 to day 21 to suppress intestinal microbiota. […]
H&E and Masson Trichrome (MT) staining were performed as described previously. Microphotographs were recorded at multiple locations and scored by two investigators blindly. Intestinal injuries were scored (0-12). The severity of intestinal fibrosis was assessed by MT staining and scored (0-3). […]
(§1) Total RNA was isolated by an RNeasy kit (#74104, Qiagen) and reverse transcribed into cDNA by a high-capacity cDNA reverse transcription kit (#4368813, ThermoFisher). […] Relative mRNA/miRNA quantification was performed by comparing test groups and control groups after normalization with endogenous control genes. The fold changes are expressed as 2^ΔΔCt. […]
Overall disease activity (ODA) was calculated by % change of histology and fibrosis scores and colonic mRNA expression of fibrosis- and inflammation-related genes. […]

SAMP1/YitFc mice = test: Spontaneous ileal fibrosis in SAMP1/YitFc mice; type: in vivo; details: SAMP1/YitFc model
Protocol: Eight-week-old male and female SAMP1/YitFc mice (#009355) and normal AKR strain control mice (#000648) were purchased from Jackson Laboratories. SAMP1/YitFc mice developed spontaneous ileal inflammation and fibrosis at 40 weeks of age.
Some groups were treated with antibiotics mixture in drinking water ad libitum from 10 to 42 weeks of age. Others received a single intraperitoneal injection (1×10^7 infectious units/mouse) of either control lentivirus or elafin-expressing lentivirus (RC203136L1V, Origene) at 40-weeks of age. Ileal tissues were collected for analysis two weeks after the lentiviral injection.
H&E and Masson Trichrome (MT) staining were performed as described previously. Microphotographs were recorded at multiple locations and scored by two investigators blindly. Intestinal injuries were scored (0-12). The severity of intestinal fibrosis was assessed by MT staining and scored (0-3). ZEB1 immunohistochemistry was performed using an anti-ZEB1 antibody (HPA027524, Sigma).
as §1

“Elafin: small (6 kDa) human elastase-specific protease inhibitor and antimicrobial peptide; active form SEQ ID NO: 2 (AQEPVKGPVSTKPGSCPIILIRCAMLNPPNRCLKDTDCPGIKKCCEGSCGMACFVPQ; listed as Homo sapiens)” was tested, and the “pro-collagen 1A1 protein expression” value (CCD-18Co fibroblasts) was “significantly increased”, the T-cell cytokine secretion (CD patient-derived PBMCs) was “did not affect” and the overall disease activity (Salmonella-infected mice) was 29%. The overall disease activity (SAMP1/YitFc mice) was 7%.
